The target of assay [1] is T1, Prostaglandin G/H synthase 1 (Ovis aries) (UniProt P05979).
T1 sequence (whole entry): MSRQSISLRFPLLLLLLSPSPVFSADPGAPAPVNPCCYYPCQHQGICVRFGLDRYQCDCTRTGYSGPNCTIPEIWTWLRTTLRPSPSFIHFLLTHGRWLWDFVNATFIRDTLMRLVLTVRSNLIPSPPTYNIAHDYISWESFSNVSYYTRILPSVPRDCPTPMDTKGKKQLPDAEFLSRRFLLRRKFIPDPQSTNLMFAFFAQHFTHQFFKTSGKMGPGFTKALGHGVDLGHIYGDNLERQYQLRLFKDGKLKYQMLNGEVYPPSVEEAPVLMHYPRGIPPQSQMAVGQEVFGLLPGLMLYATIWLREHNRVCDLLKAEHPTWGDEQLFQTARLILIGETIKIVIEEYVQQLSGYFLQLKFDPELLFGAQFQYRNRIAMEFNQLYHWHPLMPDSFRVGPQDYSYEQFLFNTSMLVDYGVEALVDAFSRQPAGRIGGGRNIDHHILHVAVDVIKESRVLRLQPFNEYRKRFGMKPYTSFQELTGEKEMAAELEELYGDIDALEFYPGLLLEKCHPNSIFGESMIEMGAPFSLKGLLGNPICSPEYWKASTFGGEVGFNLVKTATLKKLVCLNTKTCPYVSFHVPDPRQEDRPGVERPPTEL
Kind of assay: Inhibition of ovine COX1 at 10 uM using arachidonic acid as substrate preincubated for 5 mins followed by substrate addition and measured after 5 mins by UPLC-MS/MS analysis.

Assay [2] concerns the target T2, Prostaglandin E synthase (Homo sapiens) (UniProt O14684).
T2 sequence (whole entry): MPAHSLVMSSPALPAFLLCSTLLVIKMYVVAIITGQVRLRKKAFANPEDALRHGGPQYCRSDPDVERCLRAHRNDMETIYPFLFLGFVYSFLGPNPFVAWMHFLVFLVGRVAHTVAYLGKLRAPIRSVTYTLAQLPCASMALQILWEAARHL
The assay can be described thus: Inhibition of mPGES1 in IL-1beta-stimulated human A549 cell microsomes assessed as remaining activity at 10 uM using PGH2 as substrate by measuring reduction in PGE2 production preincubated for 15 mins followed by substrate addition and measured after 1 min by RP-HPLC analysis.

Assay [3] deals with T3, Prostaglandin G/H synthase 2 (Homo sapiens) (UniProt P35354).
T3 sequence (whole entry): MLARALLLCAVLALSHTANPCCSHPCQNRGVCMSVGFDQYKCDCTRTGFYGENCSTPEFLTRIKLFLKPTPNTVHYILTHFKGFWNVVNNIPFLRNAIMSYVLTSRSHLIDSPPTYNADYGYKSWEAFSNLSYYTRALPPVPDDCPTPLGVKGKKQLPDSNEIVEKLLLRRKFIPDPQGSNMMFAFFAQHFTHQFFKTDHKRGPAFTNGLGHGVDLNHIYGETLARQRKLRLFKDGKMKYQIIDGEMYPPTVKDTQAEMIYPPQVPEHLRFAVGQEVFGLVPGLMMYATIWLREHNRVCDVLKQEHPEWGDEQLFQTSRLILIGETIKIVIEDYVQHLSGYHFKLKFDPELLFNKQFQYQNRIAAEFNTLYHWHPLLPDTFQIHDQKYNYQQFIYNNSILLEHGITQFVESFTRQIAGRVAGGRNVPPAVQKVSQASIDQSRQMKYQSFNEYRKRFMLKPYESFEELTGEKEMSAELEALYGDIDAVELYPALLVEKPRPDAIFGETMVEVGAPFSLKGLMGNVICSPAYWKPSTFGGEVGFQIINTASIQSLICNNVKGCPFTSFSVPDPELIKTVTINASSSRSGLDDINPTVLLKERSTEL
The assay can be described thus: Inhibition of recombinant human COX2 at 10 uM using arachidonic acid as substrate preincubated for 5 mins followed by substrate addition and measured after 5 mins by UPLC-MS/MS analysis.

The target in a further assay is T4, Prostaglandin E synthase (Homo sapiens, UniProt O14684).
T4 sequence (O14684 whole entry): T2 sequence (whole entry)
Kind of assay: Inhibition of mPGES1 in IL-1beta-stimulated human A549 cell microsomes using PGH2 as substrate assessed as reduction in PGE2 production preincubated for 15 mins followed by substrate addition and measured after 1 min by RP-HPLC analysis.

Assay [4] has as its target T5, Prostaglandin G/H synthase 1 (Ovis aries, UniProt P05979).
T5 sequence (P05979 whole entry): T1 sequence (whole entry)
Kind of assay: Inhibition of ovine COX1 using arachidonic acid as substrate preincubated for 5 mins followed by substrate addition and measured after 5 mins by UPLC-MS/MS analysis.

Calls of active or inactive are those of the source. The calls are words filed in the database; no cut-off is given here.

As a reminder, the IC50 is the concentration that gives 50% inhibition. Regarding `COCCc1ccc(OCc2ccc(-c3cc(F)c([N+](=O)[O-])cc3[N+](=O)[O-])cc2)cc1`, the inhibition entry in assay [1] and in assay [3] was “inactive” throughout. Further, the Activity in assay [2] was found to be 11.8%. The IC50 on Prostaglandin E synthase came to 1640 nM.

For the compound `O=[N+]([O-])c1cc([N+](=O)[O-])c(-c2ccc(COc3cccc(C(F)(F)F)c3)cc2)cc1F`, the inhibition entry in assay [1] and in assay [3] was “inactive” in each case. Further, the Activity in assay [2] turned out to be 12.1%. The half-maximal inhibitory concentration (IC50) at Prostaglandin E synthase was 260 nM.

Take `O=[N+]([O-])c1cc(C(F)(F)F)ccc1-c1ccc(COc2cccc3ccccc23)cc1`: the result in assay [2] was inactive. For the same compound, at Prostaglandin E synthase, the IC50 is over 10000 nM.

For the compound `O=[N+]([O-])c1cc([N+](=O)[O-])c(-c2ccccc2COc2cccc(C(F)(F)F)c2)cc1F`, the inhibition entry in assay [1] is “Active”. Besides, in assay [2], the Activity amounted to 7%. For the same compound, the inhibition entry in assay [3] is “inactive”. Also, the IC50 worked out at 3000 nM in assay [4] and 540 nM on Prostaglandin E synthase.

Consider `O=[N+]([O-])c1cc(C(F)(F)F)ccc1-c1ccccc1COc1cccc(C(F)(F)F)c1`, for which, in assay [2], the outcome was inactive. In addition, on Prostaglandin E synthase, the IC50 is over 10000 nM.

Turning to `O=[N+]([O-])c1cc([N+](=O)[O-])c(-c2ccc(COc3ccccc3)cc2)cc1F`, the inhibition entry in assay [1] and in assay [3] was “inactive” in each case. In addition, in assay [2], the Activity turned out to be 9.5%. Moreover, the IC50 at Prostaglandin E synthase is 600 nM.

Take `O=[N+]([O-])c1cc(C(F)(F)F)ccc1-c1ccc(COc2cccc(C(F)(F)F)c2)cc1`: in assay [2], the result was inactive. For the same compound, the IC50 on Prostaglandin E synthase is over 10000 nM.

Consider `O=[N+]([O-])c1cc([N+](=O)[O-])c(-c2ccc(COc3cccc4ccccc34)cc2)cc1F`, for which the inhibition result in assay [1] and in assay [3] was “inactive” throughout. Also, the Activity in assay [2] came out at 9.1%. The IC50 at Prostaglandin E synthase is 180 nM.

Turning to `O=[N+]([O-])c1cc(C(F)(F)F)ccc1-c1ccc(COc2ccccc2)cc1`, the outcome in assay [2] was inactive. Moreover, the IC50 on Prostaglandin E synthase is over 10000 nM.

As to `COCCc1ccc(OCc2ccc(-c3ccc(C(F)(F)F)cc3[N+](=O)[O-])cc2)cc1`, in assay [2], the result was inactive. Moreover, the IC50 at Prostaglandin E synthase was over 10000 nM.
